Laboratory results taken from patent US8030047B2, “Active truncated form of the RNA polymerase of flavivirus” (priority 2003, dated 2011).

Tests used:
[1] = molecular target: T1, NS5PolDV (Dengue virus type 2, UniProt P14340); test: RNA polymerase activity of NS5PolDV on homopolymeric template poly(rC), [3H]-GTP incorporation; format: biochemical, Dengue virus (subtype 2, Strain New Guinea C); conditions: for IC50: poly(rC) without primer, GTP 10 mM (so in the source), NS5PolDV 60 nM, [3H]-GTP incorporation after 15 min
T1 construct: The junction (or where the Pol domain starts) is located at amino acid 272; His-tag; made in house; host or cells: E. coli BL21[pDNAy], plasmid pQE30
Experimental: (§1) Activity was tested on three homopolymeric templates: poly(rC), poly(rU) and poly(rA). Only poly(rC) resulted to be a productive template for NS5PolDV. This was illustrated in FIG. 4 based on the following protocol: RNA polymerase activity was tested on a homopolymeric RNA template (polycytidylic acid, Amersham Biosciences) of an average length of 360 nt. A standard assay was carried out in 50 mM HEPES buffer, pH 8.0, 10 mM KCl, 5 mM MgCl2, 5 mM MnCl2, 10 mM DTT containing 1 μM template, […] primer GG, 10 μM GTP, 0.01 mCi [3H]-GTP per μl reaction mixture and the concentration of enzyme given below. Reactions were carried out at 30° C. for given time periods and stopped by spotting a sample on DEAE filter discs (Whatman) presoaked with 50 mM EDTA. Filters were washed 3×10 min with 300 mM (NH4)2SO4 buffer, pH 8.0 and 2×5 min with EtOH and air-dried. Liquid scintillation fluid was added and incorporation in counts per minute (cpm) determined by using a Wallac MicroBeta TriLux Liquid Scintillation Counter.
A: Influence of specific E. coli RNA polymerase inhibitor rifampicin on NS5PolDV and E. coli polymerase (control). NS5PolDV was tested using the conditions given above at 64-nM enzyme concentration. E. coli RNA polymerase was obtained from USBiochemicals and used in NS5PolDV standard reaction buffer at 37 nM.
In FIG. 5, the steady-state Km determination of GTP with various ligands was performed as follows: RNA polymerase activity was tested under conditions given in the description set forth above in the experiments related to FIG. 4 without the use of a primer. Initial velocities were determined over a time period of 5 min. GTP concentrations in the range of 2 to 500 μM were tested using poly(rC) at 1 μM. Template poly(rC) was tested in the range of 2 to 1000 nM with GTP fixed at 200 μM.
Initial velocities were determined on poly(rC) at 10 mM GTP and compared to corresponding values without inhibitor. […] Since these inhibition results are not identical, questions related to the putative interference of the capping domain remain when using the full-length polymerase.

[2] = molecular target: T2, full-length NS5DV (Dengue virus type 2, UniProt P14340); test: RNA polymerase activity of full-length NS5DV on poly(rC); format: biochemical, Dengue virus (subtype 2, Strain New Guinea C); conditions: inhibitor 10 mM, 10 mM GTP, read-out: Initial velocity compared to the protein without inhibitor
T2 construct: His-tag; made in house; host or cells: E. coli BL21[pDNAy], plasmid pQE30
Experimental: as §1, with “Filters were washed 3×10 min with 300 mM (NH4)2SO4 buffer, pH 8.0 and 2×5 min with EtOH and air-dried.” left out
In FIG. 5, the steady-state Km determination of GTP with various ligands was performed as follows: RNA polymerase activity was tested under conditions given in the description set forth above in the experiments related to FIG. 4 without the use of a primer. Initial velocities were determined over a time period of 5 min. […]
Initial velocities were determined on poly(rC) at 10 mM GTP and compared to corresponding values without inhibitor. […]

[3] = molecular target: T3, NS5PolWNV (West Nile virus, UniProt Q9Q6P4, K2808N/V2900A); test: RNA polymerase activity of NS5PolWNV on homopolymeric template poly(rC), [3H]-GTP incorporation; format: biochemical, West Nile virus (strain New York 99); conditions: poly(rC) without primer; GTP 100 mM (so in the source); [3H]-GTP incorporation after 15 min
T3 construct: His-tag; made in house
T3 sequence (Q9Q6P4 2802-3433 K2808N/V2900A): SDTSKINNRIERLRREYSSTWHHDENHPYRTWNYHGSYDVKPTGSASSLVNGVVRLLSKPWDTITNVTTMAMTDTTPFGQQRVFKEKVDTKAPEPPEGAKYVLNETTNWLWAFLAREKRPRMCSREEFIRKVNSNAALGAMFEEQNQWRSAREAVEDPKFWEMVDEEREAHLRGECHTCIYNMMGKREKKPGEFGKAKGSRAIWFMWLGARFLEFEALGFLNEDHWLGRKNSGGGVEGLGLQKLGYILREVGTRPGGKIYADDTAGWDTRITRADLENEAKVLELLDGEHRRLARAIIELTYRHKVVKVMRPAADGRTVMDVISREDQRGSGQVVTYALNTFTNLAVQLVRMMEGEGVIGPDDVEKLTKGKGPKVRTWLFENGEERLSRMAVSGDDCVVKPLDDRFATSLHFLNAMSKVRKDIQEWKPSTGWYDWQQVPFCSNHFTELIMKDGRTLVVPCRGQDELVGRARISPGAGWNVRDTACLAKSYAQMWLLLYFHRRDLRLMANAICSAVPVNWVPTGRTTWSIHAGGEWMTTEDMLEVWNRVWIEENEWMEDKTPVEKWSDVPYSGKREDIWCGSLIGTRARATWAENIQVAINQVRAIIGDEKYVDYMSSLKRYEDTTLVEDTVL

Row | Compound | IC50 [1] | activity at 10000 µM ([1]; read-out: Initial velocity compared to the protein without inhibitor) | activity at 10000 µM [2] | IC50 [3]
1 | Nc1nc2c(ncn2[C@@H]2O[C@H](COP(=O)(O)OP(=O)(O)OP(=O)(O)O)C[C@H]2O)c(=O)[nH]1 [3′-deoxy GTP] | 0.02 µM |  |  | 
2 | Nc1nc2c(ncn2[C@H]2CC[C@@H](COP(=O)(O)OP(=O)(O)OP(=O)(O)O)O2)c(=O)[nH]1 [2′,3′-dideoxy GTP] | 0.8 µM |  |  | 
3 | CO[C@@H]1[C@H](O)[C@@H](COP(=O)(O)OP(=O)(O)OP(=O)(O)O)O[C@H]1n1cnc2c(=O)[nH]c(N)nc21 [2′-O-methyl-GTP] | 5.6 µM | 29.3% | 19.3% | 
4 | 3′-dioxolane 3′-deoxy GTP | 1.2 µM |  |  | 58 µM
